Measurements published in ChEMBL document CHEMBL1136253 (Bioorg Med Chem Lett, 2003).
pIC50, pKi: −log10 of the molar value.

How the values were obtained:
[1] = biological target: T1, Corticotropin-releasing factor receptor 1 (Homo sapiens, UniProt P34998); experiment: Binding affinity towards Corticotropin releasing factor receptor 1 was measured through displacement of [125I]sauvagine expressed in HEK293 cells; format: cell-based
T1 sequence (P34998 whole entry): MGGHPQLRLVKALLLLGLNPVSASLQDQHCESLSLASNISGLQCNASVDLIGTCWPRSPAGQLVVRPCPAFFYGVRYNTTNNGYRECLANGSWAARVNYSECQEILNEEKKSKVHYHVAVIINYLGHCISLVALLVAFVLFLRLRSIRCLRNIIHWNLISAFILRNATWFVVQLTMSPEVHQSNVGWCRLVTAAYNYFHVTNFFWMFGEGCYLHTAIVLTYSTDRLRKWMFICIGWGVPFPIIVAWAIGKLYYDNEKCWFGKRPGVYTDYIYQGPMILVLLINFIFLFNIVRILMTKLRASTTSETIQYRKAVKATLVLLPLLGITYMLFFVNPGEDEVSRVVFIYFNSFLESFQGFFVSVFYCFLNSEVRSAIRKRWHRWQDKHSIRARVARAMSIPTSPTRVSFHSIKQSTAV

[2] = biological target: T1, Corticotropin-releasing factor receptor 1; experiment: Inhibition of Corticotropin releasing factor receptor 1-stimulated cAMP production; format: functional
[3] = biological target: T1, Corticotropin-releasing factor receptor 1; experiment: Inhibition of (Corticotropin-Releasing Factor Receptor) CRF-stimulated cAMP production; format: functional

Structure (SMILES)	pKi [1]	pIC50 [2]	pIC50 [3]
CCCCCCN(CCOC)c1cc(C)nc2c(-c3ccc(Cl)cc3Cl)nn(C)c12	8.40	–	–
CCCCN(CCCC)c1cc(C)nc2c(-c3c(C)cc(C)cc3C)nn(C)c12	8.29	–	–
CCCCNc1cc(C)nc2c(-c3ccc(Cl)cc3Cl)nn(C)c12	6.77	–	–
CCN(CCOC)c1cc(C)nc2c(-c3ccc(Cl)cc3Cl)nn(C)c12	8.49	7.82	–
CCCCCN(CC)c1cc(C)nc2c(-c3ccc(Cl)cc3Cl)nn(C)c12	8.89	–	–
CCCCN(CCCC)c1cc(C)nc2c(-c3ccc(C)cc3Cl)nn(C)c12	8.55	–	–
CCN(CCCOC)c1cc(C)nc2c(-c3ccc(Cl)cc3Cl)nn(C)c12	7.90	–	–
CCCCN(CC1CCCN1C)c1cc(C)nc2c(-c3ccc(Cl)cc3Cl)nn(C)c12 (stereo unspecified)	6.42	–	–
CCCCN(CCCC)c1cc(C)nc2c(-c3c(C)cc(C)cc3Cl)nn(C)c12	8.68	–	–
COCCN(c1cc(C)nc2c(-c3ccc(Cl)cc3Cl)nn(C)c12)C(C)C	8.01	–	–
Cc1cc(NCc2ccc(O)cc2)c2c(n1)c(-c1ccc(Cl)cc1Cl)nn2C	< 5.00	–	–
CCCCN(c1cc(C)nc2c(-c3ccc(Cl)cc3Cl)nn(C)c12)C(CC)CC	8.15	–	–
CCCCN(CC1CCCO1)c1cc(C)nc2c(-c3ccc(Cl)cc3Cl)nn(C)c12 (stereo unspecified)	7.95	–	–
CCN(CC1CC1)c1cc(C)nc2c(-c3ccc(Cl)cc3Cl)nn(C)c12	8.36	–	–
CCCCN(CCc1ccncc1)c1cc(C)nc2c(-c3ccc(Cl)cc3Cl)nn(C)c12	7.47	–	–
CCCCN(CC1CC1)c1cc(C)nc2c(-c3ccc(Cl)cc3Cl)nn(C)c12	8.89	8.52	–
COCCN(CC(C)C)c1cc(C)nc2c(-c3ccc(Cl)cc3Cl)nn(C)c12	7.98	–	–

Second part, the compound after the results:

pKi [1]	pIC50 [2]	pIC50 [3]	Structure (SMILES)
7.21	–	–	CCCC(CO)Nc1cc(C)nc2c(-c3ccc(Cl)cc3Cl)nn(C)c12 (stereo unspecified)
7.49	–	–	COCCN(C)c1cc(C)nc2c(-c3ccc(Cl)cc3Cl)nn(C)c12
8.39	–	–	CCCN(CC)c1cc(C)nc2c(-c3ccc(Cl)cc3Cl)nn(C)c12
8.01	–	–	CCCN(CCCOC)c1cc(C)nc2c(-c3ccc(Cl)cc3Cl)nn(C)c12
8.85	–	–	CCCCN(CCSC)c1cc(C)nc2c(-c3ccc(Cl)cc3Cl)nn(C)c12
8.17	–	–	CCCCCN(CCOC)c1cc(C)nc2c(-c3ccc(Cl)cc3Cl)nn(C)c12
6.47	–	–	CCCCN(CCCC)c1cc(C)nc2c(-c3ccc(Cl)cc3)nn(C)c12
8.43	–	–	Cc1cc(N(CC(C)C)CC2CC2)c2c(n1)c(-c1ccc(Cl)cc1Cl)nn2C
9.05	–	–	CCCCCN(CCCC)c1cc(C)nc2c(-c3ccc(Cl)cc3Cl)nn(C)c12
7.74	–	–	CCCCN(CCCOC)c1cc(C)nc2c(-c3ccc(Cl)cc3Cl)nn(C)c12
–	8.30	–	CCCCN(CCCC)c1cc(C)nc2c(-c3ccc(Cl)cc3Cl)nn(C)c12
8.32	–	–	CCCCN(CCCC)c1cc(C)nc2c(-c3ccc(OC)cc3Cl)nn(C)c12
7.62	–	–	CCCN(C)c1cc(C)nc2c(-c3ccc(Cl)cc3Cl)nn(C)c12
9.00	–	–	CCCCCCN(CC1CC1)c1cc(C)nc2c(-c3ccc(Cl)cc3Cl)nn(C)c12
8.29	7.44	–	CCCN(CCOC)c1cc(C)nc2c(-c3ccc(Cl)cc3Cl)nn(C)c12
7.89	–	–	CCCCN(CCc1ccccn1)c1cc(C)nc2c(-c3ccc(Cl)cc3Cl)nn(C)c12
8.92	–	–	CCCCCN(CCC)c1cc(C)nc2c(-c3ccc(Cl)cc3Cl)nn(C)c12
7.98	–	–	CCCCN(CCOC)c1cc(C)nc2c(-c3ccc(Cl)cc3Cl)nn(C)c12
7.89	–	–	CCCN(Cc1ccc(O)cc1)c1cc(C)nc2c(-c3ccc(Cl)cc3Cl)nn(C)c12
8.09	7.42	–	COCCN(CCOC)c1cc(C)nc2c(-c3ccc(Cl)cc3Cl)nn(C)c12
8.82	–	–	CCCCCN(CC1CC1)c1cc(C)nc2c(-c3ccc(Cl)cc3Cl)nn(C)c12
8.36	7.74	–	CCCN(CCO)c1cc(C)nc2c(-c3ccc(Cl)cc3Cl)nn(C)c12
7.17	–	–	CCCCN(Cc1ccncc1)c1cc(C)nc2c(-c3ccc(Cl)cc3Cl)nn(C)c12
–	–	7.80	CCCN(CC1CC1)c1cc(C)nc2c(-c3ccc(Cl)cc3Cl)nn(C)c12
